Reference: patent US11413291B2, “Pesticidally active heterocyclic derivatives with sulfur containing substituents” (SYNGENTA PARTICIPATIONS AG, priority 2017, dated 2022)

Assays:
Assay type in all cases: in vivo
Spodoptera littoralis = assay: Example B1: Spodoptera littoralis, sprayed cotton leaf discs; conditions: foliar, 72 h, application rate 200 ppm, L1 larvae, 3 days after infestation
Procedure: Cotton leaf discs were placed onto agar in 24-well microtiter plates and sprayed with aqueous test solutions prepared from 10′000 ppm DMSO stock solutions. After drying the leaf discs were infested with five L1 larvae. The samples were assessed for mortality, anti-feeding effect, and growth inhibition in comparison to untreated samples 3 days after infestation. Control of Spodoptera littoralis by a test sample is given when at least one of the categories mortality, anti-feedant effect, and growth inhibition is higher than the untreated sample.

Plutella xylostella = assay: Example B3: Plutella xylostella, artificial diet; conditions: 120 h, application rate 200 ppm, L2 larvae, 5 days after infestation, read-out: effect in at least one of the two categories (mortality or growth inhibition)
Procedure: (§1) 24-well microtiter plates with artificial diet were treated with aqueous test solutions prepared from 10,000 ppm DMSO stock solutions by pipetting. After drying, the plates were infested with L2 larvae (10 to 15 per well). The samples were assessed for mortality and growth inhibition in comparison to untreated samples 5 days after infestation.

Diabrotica balteata = assay: Example B4: Diabrotica balteata, sprayed maize sprouts; conditions: 96 h, application rate 200 ppm, L2 larvae, 4 days after infestation, read-out: effect in at least one of the two categories (mortality or growth inhibition)
Procedure: as §1, with “Maize sprouts placed onto an agar layer in 24-well” for “24-well”, “plates” for “plates with artificial diet”, “spraying.” for “pipetting.”, “(6” for “(10”, “10” for “15”, “4” for “5”

Myzus persicae [1] = assay: Example B5: Myzus persicae feeding/contact, sprayed sunflower leaf discs; conditions: foliar; for mortality at 200 ppm: Myzus persicae, 144 h, application rate 200 ppm, mixed ages, 6 days after infestation; for mortality at 12.5 ppm: Myzus persicae (B5), concentration 12.5 ppm
Procedure: Sunflower leaf discs were placed onto agar in a 24-well microtiter plate and sprayed with aqueous test solutions prepared from 10,000 ppm DMSO stock solutions. After drying, the leaf discs were infested with an aphid population of mixed ages. The samples were assessed for mortality 6 days after infestation.

Myzus persicae [2] = assay: Example B6: Myzus persicae systemic, pea seedling roots in test solution; conditions: for mortality at 6 ppm: Myzus persicae (B6), concentration 6 ppm; for mortality at 24 ppm: Myzus persicae, 144 h, test rate 24 ppm, mixed ages, 6 days
Procedure: Roots of pea seedlings infested with an aphid population of mixed ages were placed directly into aqueous test solutions prepared from 10,000 DMSO stock solutions. The samples were assessed for mortality 6 days after placing seedlings into test solutions.

Bemisia tabaci = assay: Example B7: Bemisia tabaci, sprayed cotton leaf discs; conditions: foliar, 144 h, application rate 200 ppm, adult white flies, 6 days after incubation
Procedure: Cotton leaf discs were placed on agar in 24-well microtiter plates and sprayed with aqueous test solutions prepared from 10,000 ppm DMSO stock solutions. After drying the leaf discs were infested with adult white flies. The samples were checked for mortality 6 days after incubation.

Euschistus heros = assay: Example B8: Euschistus heros, sprayed soybean leaves; conditions: for mortality at 0.8 ppm: Euschistus heros (B8), concentration 0.8 ppm; for percent effect (mortality or growth inhibition) at 200 ppm: Euschistus heros, 120 h, application rate 200 ppm, N2 nymphs, 5 days after infestation, read-out: effect in at least one of the two categories (mortality or growth inhibition)
Procedure: Soybean leaves on agar in 24-well microtiter plates were sprayed with aqueous test solutions prepared from 10,000 ppm DMSO stock solutions. After drying the leaves were infested with N2 nymphs. The samples were assessed for mortality and growth inhibition in comparison to untreated samples 5 days after infestation.

Tetranychus urticae = assay: Example B10: Tetranychus urticae, sprayed bean leaf discs; conditions: foliar, 192 h, application rate 200 ppm, mixed population (mobile stages), 8 days after infestation
Procedure: Bean leaf discs on agar in 24-well microtiter plates were sprayed with aqueous test solutions prepared from 10,000 ppm DMSO stock solutions. After drying the leaf discs were infested with a mite population of mixed ages. The samples were assessed for mortality on mixed population (mobile stages) 8 days after infestation.

[3] = test system: Frankliniella occidentalis; assay: Example B11: Frankliniella occidentalis, sprayed sunflower leaf discs; conditions: foliar, 168 h, application rate 200 ppm, mixed ages, 7 days after infestation
Procedure: Sunflower leaf discs were placed on agar in 24-well microtiter plates and sprayed with aqueous test solutions prepared from 10,000 DMSO stock solutions. After drying the leaf discs were infested with a Frankliniella population of mixed ages. The samples were assessed for mortality 7 days after infestation.

| SMILES | percent control (mortality, anti-feedant effect or growth inhibition) at 200 ppm (Spodoptera littoralis) [%] | percent effect (mortality or growth inhibition) at 200 ppm (Plutella xylostella) [%] | percent effect (mortality or growth inhibition) at 200 ppm (Diabrotica balteata) [%] | mortality at 200 ppm (Myzus persicae [1]) [%] | mortality at 12.5 ppm (Myzus persicae [1]) [%] | mortality at 6 ppm (Myzus persicae [2]) [%] | mortality at 24 ppm (Myzus persicae [2]) [%] | mortality at 200 ppm (Bemisia tabaci) [%] | mortality at 0.8 ppm (Euschistus heros) [%] | percent effect (mortality or growth inhibition) at 200 ppm (Euschistus heros) [%] | mortality at 200 ppm (Tetranychus urticae) [%] | mortality at 200 ppm [3] [%] |
| --- | --- | --- | --- | --- | --- | --- | --- | --- | --- | --- | --- | --- |
| CCS(=O)(=O)c1cc(C(C)(C)C#N)cnc1-c1cn2cnc(C(F)(F)F)cc2n1 [Compound P1, 2-[5-ethylsulfonyl-6-[7-(trifluoromethyl)imidazo[1,2-c]pyrimidin-2-yl]-3-pyridyl]-2-methyl-propanenitrile] | ≥ 80 | ≥ 80 | ≥ 80 | ≥ 80 | 100 | 100 | ≥ 80 | ≥ 80 | 100 | ≥ 80 | ≥ 80 |  |
| CCS(=O)(=O)c1cc(C(C)(C)C#N)cnc1-n1cc2cnc(C(F)(F)F)cc2n1 [Compound P2, 2-[5-ethylsulfonyl-6-[6-(trifluoromethyl)pyrazolo[4,3-c]pyridin-2-yl]-3-pyridyl]-2-methyl-propanenitrile] | ≥ 80 | ≥ 80 | ≥ 80 | ≥ 80 |  |  |  | ≥ 80 |  | ≥ 80 |  |  |
| CCS(=O)(=O)c1cc(C(C)(C)C#N)cnc1-c1cn2ccc(SC(F)F)cc2n1 [Compound P5, 2-[6-[7-(difluoromethylsulfanyl)imidazo[1,2-a]pyridin-2-yl]-5-ethylsulfonyl-3-pyridyl]-2-methyl-propanenitrile] | ≥ 80 |  | ≥ 80 | ≥ 80 |  |  |  | ≥ 80 |  |  |  |  |
| CCS(=O)(=O)c1cc(C(C)(C)C#N)cnc1-c1cn2ccc(SC(F)(F)F)cc2n1 [Compound P7, 2-[5-ethylsulfonyl-6-[7-(trifluoromethylsulfanyl)imidazo[1,2-a]pyridin-2-yl]-3-pyridyl]-2-methyl-propanenitrile] | ≥ 80 | ≥ 80 | ≥ 80 | ≥ 80 |  |  |  | ≥ 80 |  |  |  | ≥ 80 |
| CCS(=O)(=O)c1cc(C(C)(C)C#N)cnc1-c1cn2ncc(C(F)(F)F)cc2n1 [Compound P8, 2-[5-ethylsulfonyl-6-[7-(trifluoromethyl)imidazo[1,2-b]pyridazin-2-yl]-3-pyridyl]-2-methyl-propanenitrile] | ≥ 80 | ≥ 80 | ≥ 80 | ≥ 80 |  |  | ≥ 80 | ≥ 80 |  | ≥ 80 |  |  |
| CCS(=O)(=O)c1cc(C(C)(C)C#N)cnc1-c1cn2ccc(C(F)(F)F)cc2n1 [Compound P9, 2-[5-ethylsulfonyl-6-[7-(trifluoromethyl)imidazo[1,2-a]pyridin-2-yl]-3-pyridyl]-2-methyl-propanenitrile] | ≥ 80 | ≥ 80 | ≥ 80 | ≥ 80 |  |  |  |  |  |  | ≥ 80 |  |
| CCSc1cc(C(C)(C)C#N)cnc1-c1nc2cc(C(F)(F)F)n(CC(F)(F)F)c(=O)c2n1C [Compound P10, 2-[5-ethylsulfanyl-6-[3-methyl-4-oxo-5-(2,2,2-trifluoroethyl)-6-(trifluoromethyl)imidazo[4,5-c]pyridin-2-yl]-3-pyridyl]-2-methyl-propanenitrile] |  | ≥ 80 | ≥ 80 | ≥ 80 |  |  |  | ≥ 80 |  |  |  |  |
| CCn1c(C(F)(F)F)cc2nc(-c3ccc(C(C)(C)C#N)cc3S(=O)(=O)CC)n(C)c2c1=O [Compound P13, 2-[4-[5-ethyl-3-methyl-4-oxo-6-(trifluoromethyl)imidazo[4,5-c]pyridin-2-yl]-3-ethylsulfonyl-phenyl]-2-methyl-propanenitrile] | ≥ 80 | ≥ 80 | ≥ 80 |  |  |  |  | ≥ 80 |  |  |  |  |
| CCS(=O)(=O)c1cc(C(C)(C)C#N)cnc1-c1cn2cnc(SC(F)F)cc2n1 [Compound P14, 2-[6-[7-(difluoromethylsulfanyl)imidazo[1,2-c]pyrimidin-2-yl]-5-ethylsulfonyl-3-pyridyl]-2-methyl-propanenitrile] | ≥ 80 | ≥ 80 | ≥ 80 | ≥ 80 |  |  |  | ≥ 80 |  | ≥ 80 |  |  |
| CCS(=O)(=O)c1cc(C(C)(C)C#N)cnc1-c1cn2cnc(S(=O)(=O)C(F)F)cc2n1 [Compound P15, 2-[6-[7-(difluoromethylsulfonyl)imidazo[1,2-c]pyrimidin-2-yl]-5-ethylsulfonyl-3-pyridyl]-2-methyl-propanenitrile] |  | ≥ 80 |  | ≥ 80 |  |  | ≥ 80 |  |  |  |  |  |
| CCS(=O)(=O)c1cc(C(C)(C)C#N)cnc1-c1cn2cnc([S+]([O-])C(F)F)cc2n1 (stereo not drawn) [Compound P16, 2-[6-[7-(difluoromethylsulfinyl)imidazo[1,2-c]pyrimidin-2-yl]-5-ethylsulfonyl-3-pyridyl]-2-methyl-propanenitrile] |  | ≥ 80 |  | ≥ 80 |  |  | ≥ 80 |  |  |  |  |  |
| CCSc1cc(C(C)(C)C#N)cnc1-c1nc2cc(C(F)(F)F)n(C3CC3)c(=O)c2n1C [Compound P18, 2-[6-[5-cyclopropyl-3-methyl-4-oxo-6-(trifluoromethyl)imidazo[4,5-c]pyridin-2-yl]-5-ethylsulfanyl-3-pyridyl]-2-methyl-propanenitrile] | ≥ 80 | ≥ 80 | ≥ 80 | ≥ 80 |  |  |  |  |  |  | ≥ 80 |  |
| CCS(=O)(=O)c1cc(C(C)(C)C#N)ccc1-c1cn2ccc(C(F)(F)F)cc2n1 [Compound P19, 2-[3-ethylsulfonyl-4-[7-(trifluoromethyl)imidazo[1,2-a]pyridin-2-yl]phenyl]-2-methyl-propanenitrile] | ≥ 80 | ≥ 80 | ≥ 80 |  |  |  |  | ≥ 80 |  |  |  |  |
| CCS(=O)(=O)c1cc(C(C)(C)C#N)ccc1-c1cn2cnc(C(F)(F)F)cc2n1 [Compound P20, 2-[3-ethylsulfonyl-4-[7-(trifluoromethyl)imidazo[1,2-c]pyrimidin-2-yl]phenyl]-2-methyl-propanenitrile] |  | ≥ 80 | ≥ 80 | ≥ 80 |  |  |  | ≥ 80 |  |  |  |  |
| CCS(=O)(=O)c1cc(C2(C#N)CC2)cnc1-c1cn2cnc(C(F)(F)F)cc2n1 [reference compound] |  |  |  |  | 0 | 0 |  |  | 0 |  |  |  |
